According to patent US10442835B2, “Water-soluble rapamycin derivatives” (Zhejiang Hisun Pharmaceutical Co., Ltd., priority 2016, dated 2019):

What was measured:
[1] = Body weight of DU145 tumor nude mice; conditions: for Body Weight, mean value / Decrease rate (body weight) / Decrease in body weight: 3×/w, 4 w;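 on all read-outs here: dosing started once xenografts reached 150-200 mm^3, with mice randomized into three groups, loss of body weight served as an indirect sign of drug toxicity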
Description: DU145 (the 3rd generation) tumors in the rapid proliferation stage inoculated in the axilla of nude mice were cut into tumor lumps with a size of 1 mm*1 mm*1 mm and then were inoculated subcutaneously to the right limb of nude mice using a trocar under a sterile condition. When the tumors grow to 150-200 mm^3, the mice were randomly divided into three groups and then administrated with the compounds for 4 weeks. The major diameter (a) and the minor diameter (b) of the tumors were measured 2 or 3 times a week. The tumor volume (TV) was calculated with the following equation: TV=½×a×b^2. Tumors were stripped and weighted at Day 28 and the tumor inhibition rate was calculated using the following equation: (tumor weight of control−tumor weight of experimental group)/tumor weight of control×100%.
The nude mice were divided into 3 groups with 4 mice per group when the tumors averagely grew to about 185-200 mm^3, depending on the growth regularity of the tumor and the dosage regimen.
G1: positive drug group: Everolimus (5 mg/kg, qw, 4 w, 3×/w); administration route: intragastrical administration;

[2] = Body weight of NCI-H460 tumor nude mice; conditions: for Body Weights, mean value / Decrease rate (body weight) / Decrease in body weight: everolimus 5 mg/kg, compound I-1 6.8 mg/kg, qw 4×;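 on all read-outs here: Tumor-bearing mice dosed for 4 weeks once tumors reached 150–200 mm^3, with a vehicle control group, and body weight loss taken as an indirect sign of drug toxicity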
Description: NCI-H460 (the 3rd generation) tumors in the rapid proliferation stage inoculated in the axilla of nude mice were cut into tumor lumps with a size of 1 mm*1 mm*1 mm and then were inoculated subcutaneously to the right limb of nude mice using a trocar under a sterile condition. When the tumors grew to 150˜200 mm^3, the mice were divided into groups and then administrated with the compounds for 4 weeks. The major diameter (a) and the minor diameter (b) of the tumors were measured two or three times a week. The tumor volume (TV) and the relative tumor proliferation rate (T/C) were calculated. The equation for calculating the tumor volume is: TV=½×a×b^2. The equation for calculating the relative tumor proliferation rate is T/C=TRTC/CRTV (TRTC: average relative tumor volume in the treatment group; CRTV: average relative tumor volume in the vehicle control group). Tumors were stripped and weighted at Day 28 and the tumor-inhibition rate was calculated with the following equation: (tumor weight of control−tumor weight of experimental group)/tumor weight of control×100%.
Grouping method: the mice were divided into 3 groups with 6 mice per group when the tumors averagely grew to about 195 mm^3, depending on the growth regularity of the tumor and the dosage regimen. Administration route: intragastrical administration.
G1: Control (vehicle, qw 4×, iv)
G2: Positive drug group: Everolimus (5 mg/kg, qw 4×, iv)

[3] = Day 10, G3 compound I-1 1.7 mg/kg tail vein injection
[4] = Day 14, G2 compound I-1 3.4 mg/kg tail vein injection
[5] = Day 14, G3 compound I-1 1.7 mg/kg tail vein injection
[6] = Day 17, G2 compound I-1 3.4 mg/kg tail vein injection
[7] = Day 17, G3 compound I-1 1.7 mg/kg tail vein injection
[8] = Day 21, G2 compound I-1 3.4 mg/kg tail vein injection
[9] = Day 21, G3 compound I-1 1.7 mg/kg tail vein injection
[10] = Day 24, G2 compound I-1 3.4 mg/kg tail vein injection
[11] = Day 24, G3 compound I-1 1.7 mg/kg tail vein injection
[12] = Day 28, G2 compound I-1 3.4 mg/kg tail vein injection
[13] = Day 28, G3 compound I-1 1.7 mg/kg tail vein injection

SMILES: CO[C@H]1C[C@@H]2CC[C@@H](C)[C@@](O)(O2)C(=O)C(=O)N2CCCC[C@H]2C(=O)OC([C@H](C)C[C@@H]2CC[C@@H](OCCOC(=O)CSC[C@H](NC(=O)CC[C@H](N)C(=O)O)C(=O)NCC(=O)O)[C@H](OC)C2)CC(=O)[C@H](C)/C=C(\C)[C@@H](O)[C@@H](OC)C(=O)[C@H](C)C[C@@H](C)\C=C/C=C/C=C/1C (stereo partly shown) [Compound I-1]
- Body Weight, mean value [1, 3]: 27.18 g
- Decrease rate (body weight) [1, 3]: −1.18%
- Decrease in body weight ([1]; Day 10 vs Day 0, G2 compound I-1 3.4 mg/kg tail vein injection): -0.85 g
- Decrease in body weight ([1]; Day 10 vs Day 0, G3 compound I-1 1.7 mg/kg tail vein injection): -0.32 g
- Body Weight, mean value [1, 4]: 26.59 g
- Decrease rate (body weight) [1, 4]: −5.12%
- Body Weight, mean value [1, 5]: 27.69 g
- Decrease rate (body weight) [1, 5]: −3.10%
- Decrease in body weight ([1]; Day 14 vs Day 0, G2 compound I-1 3.4 mg/kg tail vein injection): -1.30 g
- Decrease in body weight ([1]; Day 14 vs Day 0, G3 compound I-1 1.7 mg/kg tail vein injection): -0.83 g
- Body Weight, mean value [1, 6]: 26.34 g
- Decrease rate (body weight) [1, 6]: −4.12%
- Body Weight, mean value [1, 7]: 27.81 g
- Decrease rate (body weight) [1, 7]: −3.54%
- Decrease in body weight ([1]; Day 17 vs Day 0, G2 compound I-1 3.4 mg/kg tail vein injection): -1.04 g
- Decrease in body weight ([1]; Day 17 vs Day 0, G3 compound I-1 1.7 mg/kg tail vein injection): -0.95 g
- Body Weight, mean value [1, 8]: 26.84 g
- Decrease rate (body weight) [1, 8]: −6.09%
- Body Weight, mean value [1, 9]: 28.10 g
- Decrease rate (body weight) [1, 9]: −4.61%
- Decrease in body weight ([1]; Day 21 vs Day 0, G2 compound I-1 3.4 mg/kg tail vein injection): -1.54 g
- Decrease in body weight ([1]; Day 21 vs Day 0, G3 compound I-1 1.7 mg/kg tail vein injection): -1.24 g
- Body Weight, mean value [1, 10]: 26.58 g
- Decrease rate (body weight) [1, 10]: −5.08%
- Body Weight, mean value [1, 11]: 28.12 g
- Decrease rate (body weight) [1, 11]: −4.68%
- Decrease in body weight ([1]; Day 24 vs Day 0, G2 compound I-1 3.4 mg/kg tail vein injection): -1.29 g
- Decrease in body weight ([1]; Day 24 vs Day 0, G3 compound I-1 1.7 mg/kg tail vein injection): -1.26 g
- Body Weight, mean value [1, 12]: 26.96 g
- Decrease rate (body weight) [1, 12]: −6.57%
- Body Weight, mean value [1, 13]: 28.27 g
- Decrease rate (body weight) [1, 13]: −5.26%
- Decrease in body weight ([1]; Day 28 vs Day 0, G2 compound I-1 3.4 mg/kg tail vein injection): -1.66 g
- Decrease in body weight ([1]; Day 28 vs Day 0, G3 compound I-1 1.7 mg/kg tail vein injection): -1.41 g
- toxic and side effect ([1]; injection administration of compound I-1 (3.4 and 1.7 mg/kg), judged from body weight): does not result in obvious toxic and side effect
- Body Weights, mean value ([2]; Day 0): 26.20 g
- Body Weights, mean value ([2]; Day 3): 25.49 g
- Decrease rate (body weight) ([2]; Day 3): 2.73%
- Decrease in body weight ([2]; Day 3 vs Day 0): 0.72 g
- Body Weights, mean value ([2]; Day 7): 26.79 g
- Decrease rate (body weight) ([2]; Day 7): −2.23%
- Decrease in body weight ([2]; Day 7 vs Day 0): -0.58 g
- Body Weights, mean value ([2]; Day 10): 26.20 g
- Decrease rate (body weight) ([2]; Day 10): 0.00%
- Decrease in body weight ([2]; Day 10 vs Day 0): 0.00 g
- Body Weights, mean value ([2]; Day 14): 27.74 g
- Decrease rate (body weight) ([2]; Day 14): −5.87%
- Decrease in body weight ([2]; Day 14 vs Day 0): -1.54 g
- Body Weights, mean value ([2]; Day 17): 27.84 g
- Decrease rate (body weight) ([2]; Day 17): −6.24%
- Decrease in body weight ([2]; Day 17 vs Day 0): -1.64 g
- Body Weights, mean value ([2]; Day 21): 28.42 g
- Decrease rate (body weight) ([2]; Day 21): −8.46%
- Decrease in body weight ([2]; Day 21 vs Day 0): -2.22 g
- Body Weights, mean value ([2]; Day 24): 28.09 g
- Decrease rate (body weight) ([2]; Day 24): −7.20%
- Decrease in body weight ([2]; Day 24 vs Day 0): -1.89 g
- Body Weights, mean value ([2]; Day 28): 29.00 g
- Decrease rate (body weight) ([2]; Day 28): −10.68%
- Decrease in body weight ([2]; Day 28 vs Day 0): -2.80 g
- toxic and side effect in vivo ([2]; judged from body weight, compound I-1 6.8 mg/kg vs everolimus 5 mg/kg): significantly lower than that of everolimus
